This experiment deals with T1, full-length human PIKFYVE (N-terminal GST-fusion) (Homo sapiens, UniProt Q9Y2I7, L932S/Q1183K/Q995L/S1033A/S696N/T998S).
T1 construct: A full-length human PIKFYVE [1-2098(end) amino acids; purchased Carna Biosciences; host or cells: baculovirus expression system
The experiment is described as follows: PIKfyve Biochemical Assay (ADP-Glo Kinase assay, Carna Biosciences). The protocol:
PIKfyve Biochemical Assay. The biochemical PIKFyve inhibition assays were run by Carna Biosciences according to proprietary methodology based on the Promega ADP-Glo™ Kinase assay. […] GST-PIKFYVE was purified by using glutathione sepharose chromatography and used in an ADP-Glo™ Kinase assay (Promega). Reactions were set up by adding the test compound solution, substrate solution, ATP solution and kinase solution, each at 4× final concentrations. Reactions were prepared with assay buffer (50 mM MOPS, 1 mM DTT, pH7.2), mixed, and incubated in black 384 well polystyrene plates for 1 hour at room temperature. ADP-Glo™ reagent was then added for 40 minutes, followed by kinase detection reagent for an additional 40 minutes. The kinase activity was evaluated by detecting relative light units on a luminescence plate reader. Samples were run in duplicate from 10 μM to 3 nM. […] IC50 values were calculated from concentration vs % inhibition curves by fitting to a four-parameter logistic curve.
The biochemical PIKFyve inhibition assays were run by Carna Biosciences according to proprietary methodology based on the Promega ADP-Glo™ Kinase assay. […] The kinase activity was evaluated by detecting relative light units on a luminescence plate reader. […] IC50 values were calculated from concentration vs % inhibition curves by fitting to a four-parameter logistic curve. […]

IC50 data for 1 compound are collected here from patent US20250353851A1, “PURINES AND METHODS OF THEIR USE” (Kineta, Inc., priority 2021, published 2025).

Molecules are shown by their SMILES.

T1 sequence (Q9Y2I7 whole entry S696N/L932S/Q995L/T998S/S1033A/Q1183K, the tested form may be a part): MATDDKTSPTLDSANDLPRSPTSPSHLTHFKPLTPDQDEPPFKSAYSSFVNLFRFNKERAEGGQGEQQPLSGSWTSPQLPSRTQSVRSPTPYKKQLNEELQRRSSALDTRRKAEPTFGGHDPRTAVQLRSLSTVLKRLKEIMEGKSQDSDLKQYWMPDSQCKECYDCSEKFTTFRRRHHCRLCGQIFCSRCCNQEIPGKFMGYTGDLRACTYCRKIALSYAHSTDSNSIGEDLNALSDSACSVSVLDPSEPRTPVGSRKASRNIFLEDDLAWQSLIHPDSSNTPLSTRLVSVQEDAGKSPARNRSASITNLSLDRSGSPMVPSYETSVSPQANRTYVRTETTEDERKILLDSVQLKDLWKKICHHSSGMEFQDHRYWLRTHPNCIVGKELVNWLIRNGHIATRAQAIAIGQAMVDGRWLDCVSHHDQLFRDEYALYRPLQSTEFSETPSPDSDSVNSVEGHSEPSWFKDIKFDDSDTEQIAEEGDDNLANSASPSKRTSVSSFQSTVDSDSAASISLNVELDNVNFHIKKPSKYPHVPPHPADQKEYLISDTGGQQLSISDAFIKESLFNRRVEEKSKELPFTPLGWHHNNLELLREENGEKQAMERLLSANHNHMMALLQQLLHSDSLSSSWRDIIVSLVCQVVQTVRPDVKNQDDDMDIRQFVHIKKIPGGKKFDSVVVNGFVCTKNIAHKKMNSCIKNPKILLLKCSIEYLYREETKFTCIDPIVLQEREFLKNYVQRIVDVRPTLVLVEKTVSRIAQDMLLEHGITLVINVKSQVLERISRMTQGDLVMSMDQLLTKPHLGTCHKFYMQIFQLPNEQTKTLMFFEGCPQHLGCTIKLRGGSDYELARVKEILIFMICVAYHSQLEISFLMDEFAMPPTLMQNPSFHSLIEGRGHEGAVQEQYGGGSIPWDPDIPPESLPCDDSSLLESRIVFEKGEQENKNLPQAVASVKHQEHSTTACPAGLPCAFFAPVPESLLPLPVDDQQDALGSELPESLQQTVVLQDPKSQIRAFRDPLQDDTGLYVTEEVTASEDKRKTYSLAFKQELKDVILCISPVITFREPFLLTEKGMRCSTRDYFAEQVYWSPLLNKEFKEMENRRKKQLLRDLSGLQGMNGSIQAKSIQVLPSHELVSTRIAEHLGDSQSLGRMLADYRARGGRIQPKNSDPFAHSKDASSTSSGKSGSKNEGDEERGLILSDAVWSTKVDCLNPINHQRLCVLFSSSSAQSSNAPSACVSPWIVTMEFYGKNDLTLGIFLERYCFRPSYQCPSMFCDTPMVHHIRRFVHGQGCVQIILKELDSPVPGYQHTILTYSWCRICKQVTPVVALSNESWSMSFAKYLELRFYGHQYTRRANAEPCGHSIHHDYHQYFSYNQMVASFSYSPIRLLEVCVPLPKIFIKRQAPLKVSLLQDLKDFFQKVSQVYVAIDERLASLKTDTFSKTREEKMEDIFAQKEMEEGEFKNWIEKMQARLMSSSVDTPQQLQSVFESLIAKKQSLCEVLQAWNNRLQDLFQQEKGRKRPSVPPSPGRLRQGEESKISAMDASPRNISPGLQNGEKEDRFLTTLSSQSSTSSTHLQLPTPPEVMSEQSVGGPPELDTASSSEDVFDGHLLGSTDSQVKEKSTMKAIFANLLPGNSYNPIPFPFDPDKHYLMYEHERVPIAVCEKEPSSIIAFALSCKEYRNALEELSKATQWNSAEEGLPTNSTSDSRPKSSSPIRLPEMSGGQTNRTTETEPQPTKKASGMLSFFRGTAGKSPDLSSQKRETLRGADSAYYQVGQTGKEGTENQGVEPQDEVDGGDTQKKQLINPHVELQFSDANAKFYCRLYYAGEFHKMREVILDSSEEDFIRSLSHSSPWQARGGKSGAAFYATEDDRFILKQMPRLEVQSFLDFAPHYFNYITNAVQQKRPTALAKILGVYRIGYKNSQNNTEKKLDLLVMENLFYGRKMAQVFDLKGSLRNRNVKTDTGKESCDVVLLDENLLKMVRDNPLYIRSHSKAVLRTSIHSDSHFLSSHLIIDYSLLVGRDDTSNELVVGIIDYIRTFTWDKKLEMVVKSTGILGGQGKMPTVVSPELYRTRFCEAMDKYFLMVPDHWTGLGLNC

`CCn1c(C(C)O)nc2c(N3CCCCC3)nc(-c3cccc(-c4ccn(C)n4)c3)nc21` (stereo not shown) [Compound 339, 1-(9-ethyl-2-(3-(1-methyl-1H-pyrazol-3-yl)phenyl)-6-(piperidin-1-yl)-9H-purin-8-yl)ethan-1-ol]: the IC50 came out at 4.41 µM. In other words, the single-digit micromolar range.
